Results: patent US8580297B2, “Components for producing amphoteric liposomes” (Marina Biotech, Inc., priority 2002, dated 2013)

Experiment: Zeta potential profile at varying pH of amphoteric liposomes (zero point = isoelectric point)
Format: physicochemical
Conditions: liposomes of 2 mg lipid and 10 mg DMPC; buffer 10 mM Kac, 10 mM HEPES, 150 mM NaCl; extruded 200 nm; value is a pH
Procedure: FIG. 1 is a graph showing a profile of the zeta potential in mV at varying pH values for the amphoteric liposomes prepared according to Example 4.
2 mg of the corresponding lipid and 10 mg of DMPC are dissolved in 4 ml of chloroform/methanol (1:1 v/v) and dried completely in a rotary evaporator. The lipid film is hydrated with 4.3 ml of buffer (10 mM Kac, 10 mM HEPES, 150 mM NaCl, pH 7.5) at a lipid concentration of 5 mM using ultrasonic treatment for 5 minutes. Finally, the suspension is frozen and, following thawing, subjected to multiple extrusions (Avestine LiposoFast, polycarbonate filter, pore width 200 nm). The profile of the zeta potential in mV at varying pH values is illustrated in FIG. 1. The zero point indicates the pH value at which the liposome is discharged. This pH corresponds to the isoelectric point of the lipid and is 4.5 for #8, 5.2 for #34, 5.7 for #25.

Structure (SMILES) | isoelectric point of the lipid (pH value at which the liposome is discharged, zero point of zeta potential)
CCCCCCCC/C=C\CCCCCCCC(=O)OCC(CN(CCC(=O)O)CCC(=O)O)OC(=O)CCCCCCC/C=C\CCCCCCCC (centres unmarked) [#8, N,N-bis(propanoic acid-3-yl)-N-(2,3-dioleoyloxypropyl)amine] | 4.5
CCCC(=O)OC(COC(=O)CC)OP(=O)(O)OCCNCCC(=O)NC(Cc1c[nH]cn1)C(=O)O (centres unmarked) [#25, phosphatidyl glycerylcarnosine] | 5.7
